{"source": "patent US20240285776A1", "about": "“SMALL MOLECULE-BASED BI-SPECIFIC IMMUNE CELL TETHERS AND THEIR USE IN THE TREATMENT OF ENVELOPED VIRUS INFECTION” (PURDUE RESEARCH FOUNDATION, priority 2021, published 2024)", "key": {"[1]": {"tested_on": "Influenza A H1N1/PR8/1932 virus", "design": "species or system BALB/C mice", "conditions": "mouse, in vivo"}, "[2]": {"tested_on": "Influenza A Puerto Rico8/1934 (H1N1) virus", "format": "in vivo, BALB/C mice"}, "[3]": {"tested_on": "influenza infection", "experiment": "Treatment of FRβ knockout mice following influenza infection", "format": "in vivo, folate receptor beta (FRβ) knockout mice", "conditions": "FRβ knockout mice treated following influenza infection"}, "[4]": {"tested_on": "Influenza A Puerto Rico/8/1934 (H1N1) virus", "format": "in vivo, BALB/C mice", "conditions": "for weight-loss phenomenon: 1.5 μmol/kg once daily for five consecutive days, linear PEG linkers compared to the DBCO-containing linker; for survival rate at the end of the experiment: mouse, in vivo"}}, "data": [{"smiles": "CC(=O)N[C@H]1[C@H]([C@H](OC(=O)NCCOCCOCCOCCOCCOCCOCCNC(=O)CC[C@H](NC(=O)c2ccc(NCc3cnc4nc(N)[nH]c(=O)c4n3)cc2)C(=O)O)[C@H](O)CO)OC(C(=O)O)=C[C@@H]1NC(=N)N", "note": "[Compound 10]", "values": [{"measurement": "body weight over time", "setting": "[1]", "result": "did not lose any body weight"}, {"measurement": "survival at the end of two weeks long experiment", "setting": "[1]", "result": "both the mice survived"}, {"measurement": "dose response of survival rate", "setting": "[2]; […], 1.5, 0.5 and 0.17 μmol/kg once daily for five consecutive days", "result": "increased with increasing dose"}, {"measurement": "survival rate", "setting": "[2]; mouse, in vivo", "result": 100, "unit": "%"}, {"measurement": "survival at the end of the experiment", "setting": "[3]", "result": "None of the mice survived"}, {"measurement": "weight-loss phenomenon", "setting": "[4]", "result": "more pronounced"}, {"measurement": "survival rate at the end of the experiment", "setting": "[4]", "result": 90, "unit": "%"}]}, {"smiles": "CC(=O)N[C@H]1[C@H]([C@H](OC(=O)NCCOCCOCCOCCOCCOCCOCCOCCOCCOCCOCCOCCNC(=O)CC[C@H](NC(=O)c2ccc(NCc3cnc4nc(N)[nH]c(=O)c4n3)cc2)C(=O)O)[C@H](O)CO)OC(C(=O)O)=C[C@@H]1NC(=N)N", "note": "[zan-PEG11-folate]", "values": [{"measurement": "weight-loss phenomenon", "setting": "[4]", "result": "more pronounced"}, {"measurement": "survival rate at the end of the experiment", "setting": "[4]", "result": 100, "unit": "%"}]}]}
